Where a name gives a salt, the structure may show the parent alone.
What was measured:
Assay type in all cases: biochemical
human c-Met = target: T1, human c-Met (Homo sapiens, UniProt P08581); test: 33P isotope-labeled kinase activity test, c-Met; details: ATP 10 μM
T1 construct: purchased Invitrogen PV3143
Protocol: (§1) The inhibitory activities of the tested compounds on human FGFR1, FGFR4, and c-Met were evaluated by the IC50 values measured using ^33P isotope-labeled kinase activity test (Reaction Biology Corp).
(§2) Buffer condition: 20 mM Hepes (pH 7.5), 10 mM MgCl2, 1 mM EGTA, 0.02% Brij35, 0.02 mg/mL BSA, 0.1 mM Na3VO4, 2 mM DTT, 1% DMSO.
(§3) Test procedure: The test compounds were dissolved in DMSO at room temperature and formulated to be 10 mM solutions for later use. The substrates were dissolved in freshly prepared buffer, and kinases to be tested were added and mixed well. The test compounds dissolved in DMSO were added to the above mixed reaction solutions by acoustic technique (Echo 550). The concentration of the compound in reaction solution was 1 μM, 0.25 μM, 0.156 μM, 3.91 nM, 0.977 nM, 0.244 nM, 0.061 nM, 0.0153 nM, 0.00381 nM or 10 μM, 2.50 μM, 0.62 μM, 0.156 μM, 39.1 nM, 9.8 nM, 2.4 nM, 0.61 nM, 0.15 nM, 0.038 nM. After incubation for 15 min, ^33P-ATP (activity 0.01 μCi/μL, corresponding concentrations are listed in Table 1) was added to start the reaction. Supplier item number, batch number, as well as the concentration information in the reaction solution of FGFR1, FGFR4, c-Met and substrates thereof are listed in Table 1. […] The kinase activity data are expressed by comparison between the kinase activity in the test compound group and the kinase activity in the blank group (containing DMSO only). IC50 values were obtained by curve fitting with Prism4 software (GraphPad).

human FGFR1 = target: T2, human FGFR1 (Homo sapiens, UniProt P11362); test: 33P isotope-labeled kinase activity test, FGFR1; details: ATP 5 μM
T2 construct: purchased Invitrogen PV3146
T2 sequence (P11362 22-822): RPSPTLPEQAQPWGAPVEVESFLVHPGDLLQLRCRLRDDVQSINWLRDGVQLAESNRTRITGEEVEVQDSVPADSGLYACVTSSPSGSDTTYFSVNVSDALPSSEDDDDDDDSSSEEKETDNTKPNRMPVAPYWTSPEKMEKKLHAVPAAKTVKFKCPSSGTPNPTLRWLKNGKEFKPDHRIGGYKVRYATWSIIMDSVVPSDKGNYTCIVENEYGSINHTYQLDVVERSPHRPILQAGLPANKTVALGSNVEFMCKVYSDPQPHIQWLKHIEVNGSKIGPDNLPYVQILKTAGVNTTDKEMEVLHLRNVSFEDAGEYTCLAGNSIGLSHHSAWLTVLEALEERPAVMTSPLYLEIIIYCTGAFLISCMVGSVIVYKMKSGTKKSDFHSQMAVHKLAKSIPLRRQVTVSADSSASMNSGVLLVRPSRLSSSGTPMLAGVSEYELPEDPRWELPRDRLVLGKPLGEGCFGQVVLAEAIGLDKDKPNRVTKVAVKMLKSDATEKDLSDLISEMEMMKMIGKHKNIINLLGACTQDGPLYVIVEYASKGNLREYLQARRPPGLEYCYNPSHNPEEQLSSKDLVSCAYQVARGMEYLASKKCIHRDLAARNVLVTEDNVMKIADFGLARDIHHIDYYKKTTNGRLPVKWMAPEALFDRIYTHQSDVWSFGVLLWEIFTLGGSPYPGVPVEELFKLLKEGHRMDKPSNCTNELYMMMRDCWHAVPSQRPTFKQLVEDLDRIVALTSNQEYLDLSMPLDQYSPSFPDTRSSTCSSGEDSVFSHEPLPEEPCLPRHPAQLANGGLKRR
Protocol: as §1, §2
as §3, with “The concentration of the compound in reaction solution was 1 μM, 0.25 μM, 0.156 μM, 3.91 nM, 0.977 nM, 0.244 nM, 0.061 nM, 0.0153 nM, 0.00381 nM or 10 μM, 2.50 μM, 0.62 μM, 0.156 μM, 39.1 nM, 9.8 nM, 2.4 nM, 0.61 nM, 0.15 nM, 0.038 nM.” left out

human FGFR4 = target: T3, human FGFR4 (Homo sapiens, UniProt P22455); test: 33P isotope-labeled kinase activity test, FGFR4; details: ATP 100 μM
T3 construct: purchased Invitrogen P3054
T3 sequence (P22455 22-802): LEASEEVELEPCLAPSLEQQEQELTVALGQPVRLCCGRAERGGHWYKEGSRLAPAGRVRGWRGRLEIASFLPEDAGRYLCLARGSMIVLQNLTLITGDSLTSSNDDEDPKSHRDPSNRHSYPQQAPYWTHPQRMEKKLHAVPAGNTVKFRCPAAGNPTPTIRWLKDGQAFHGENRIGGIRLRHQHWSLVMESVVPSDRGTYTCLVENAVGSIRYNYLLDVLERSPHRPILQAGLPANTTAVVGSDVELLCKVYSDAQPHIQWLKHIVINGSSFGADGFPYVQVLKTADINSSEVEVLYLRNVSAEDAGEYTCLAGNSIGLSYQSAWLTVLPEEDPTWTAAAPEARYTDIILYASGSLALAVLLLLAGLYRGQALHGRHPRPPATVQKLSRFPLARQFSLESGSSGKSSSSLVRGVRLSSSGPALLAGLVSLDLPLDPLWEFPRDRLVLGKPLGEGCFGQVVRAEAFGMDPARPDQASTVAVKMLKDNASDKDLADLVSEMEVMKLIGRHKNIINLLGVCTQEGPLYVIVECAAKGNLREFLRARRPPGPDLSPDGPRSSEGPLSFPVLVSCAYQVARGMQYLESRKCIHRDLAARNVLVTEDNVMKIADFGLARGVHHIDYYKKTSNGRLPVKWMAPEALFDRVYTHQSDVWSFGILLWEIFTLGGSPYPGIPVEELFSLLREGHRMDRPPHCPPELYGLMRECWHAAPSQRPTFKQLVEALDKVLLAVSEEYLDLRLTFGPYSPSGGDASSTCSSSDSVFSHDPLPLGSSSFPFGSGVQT
Protocol: as §1, §2, §3

T1 sequence (P08581 25-1390): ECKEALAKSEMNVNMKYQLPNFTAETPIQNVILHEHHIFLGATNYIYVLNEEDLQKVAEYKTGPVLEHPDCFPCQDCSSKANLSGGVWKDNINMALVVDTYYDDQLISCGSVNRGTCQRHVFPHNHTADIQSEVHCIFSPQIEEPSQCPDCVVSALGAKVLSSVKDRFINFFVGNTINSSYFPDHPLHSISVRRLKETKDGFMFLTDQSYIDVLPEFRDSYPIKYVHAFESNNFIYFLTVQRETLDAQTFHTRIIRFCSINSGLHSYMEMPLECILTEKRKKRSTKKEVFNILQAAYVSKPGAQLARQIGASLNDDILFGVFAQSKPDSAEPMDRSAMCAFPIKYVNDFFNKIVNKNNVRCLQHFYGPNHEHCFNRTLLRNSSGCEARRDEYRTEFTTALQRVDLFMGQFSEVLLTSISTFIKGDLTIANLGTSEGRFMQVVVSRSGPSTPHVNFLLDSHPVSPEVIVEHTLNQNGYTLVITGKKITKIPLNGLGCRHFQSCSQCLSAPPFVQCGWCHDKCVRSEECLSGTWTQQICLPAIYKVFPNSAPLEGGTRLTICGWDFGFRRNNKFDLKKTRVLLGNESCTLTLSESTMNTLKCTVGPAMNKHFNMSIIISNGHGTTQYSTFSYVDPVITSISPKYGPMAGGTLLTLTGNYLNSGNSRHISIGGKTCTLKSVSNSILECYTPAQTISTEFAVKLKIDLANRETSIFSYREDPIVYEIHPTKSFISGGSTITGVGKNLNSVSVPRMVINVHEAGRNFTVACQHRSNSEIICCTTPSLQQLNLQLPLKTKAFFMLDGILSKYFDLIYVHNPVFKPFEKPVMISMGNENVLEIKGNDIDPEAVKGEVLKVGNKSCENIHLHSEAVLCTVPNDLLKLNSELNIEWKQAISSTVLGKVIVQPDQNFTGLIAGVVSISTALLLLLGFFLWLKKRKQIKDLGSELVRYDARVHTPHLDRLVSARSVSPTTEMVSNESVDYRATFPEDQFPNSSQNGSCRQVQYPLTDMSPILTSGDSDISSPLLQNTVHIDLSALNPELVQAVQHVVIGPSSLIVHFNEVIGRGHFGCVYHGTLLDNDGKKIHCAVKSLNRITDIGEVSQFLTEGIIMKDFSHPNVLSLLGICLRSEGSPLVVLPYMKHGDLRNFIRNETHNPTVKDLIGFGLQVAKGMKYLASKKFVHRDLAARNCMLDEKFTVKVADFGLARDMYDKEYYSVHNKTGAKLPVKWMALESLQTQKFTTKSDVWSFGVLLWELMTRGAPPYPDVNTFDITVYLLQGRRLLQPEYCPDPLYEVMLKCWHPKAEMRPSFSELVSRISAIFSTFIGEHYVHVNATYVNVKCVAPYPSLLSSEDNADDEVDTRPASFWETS

| SMILES | IC50 (human c-Met) [µM] | IC50 (human FGFR1) [µM] | IC50 (human FGFR4) [µM] |
| --- | --- | --- | --- |
| COc1cc(OC)c(F)c(Cc2c[nH]c3ncc(-c4cnn(CC(O)CO)c4)cc23)c1F (stereo not drawn) [Hydrochloride of embodiment 73] | 0.0324 | 0.0006 | 0.0025 |
| COc1cc(OC)c(F)c(Cc2c[nH]c3ncc(-c4cn(C5CCN(C)CC5)nc4C)cc23)c1F [Trifluoroacetate salt of embodiment 35] | 0.014 |  | 0.0235 |
| COc1cc(OC)c(F)c(Cc2c[nH]c3ncc(-c4cnn(CCO)c4)cc23)c1F [Hydrochloride of embodiment 46] | 0.0089 | 0.00042 | 0.0029 |
| COc1cc(OC)c(F)c(Cc2c[nH]c3ncc(-c4cnn(C5CCC(O)CC5)c4)cc23)c1F (stereo not drawn) [Trifluoroacetate salt of embodiment 31] | 0.0069 | 0.0009 | 0.0099 |
| COc1cc(OC)c(F)c(Cc2c[nH]c3ncc(-c4cnn(C5CCNCC5)c4)cc23)c1F [Embodiment 9] | 0.0113 | 0.0008 | 0.0183 |
| COc1cc(OC)c(F)c(Cc2c[nH]c3ncc(-c4ccc5c(c4)NC(=O)C54CCN(C)CC4)cc23)c1F [Trifluoroacetate salt of embodiment 56] | 0.0078 | 0.0019 | 0.0532 |
| COc1cc(OC)c(F)c(Cc2c[nH]c3ncc(-c4ccc5c(c4)NC(=O)C54CCNCC4)cc23)c1F [Trifluoroacetate salt of embodiment 54] | 0.0165 | 0.0027 | 0.0585 |
| COc1cc(OC)c(F)c(Cc2c[nH]c3ncc(-c4cnn(C5CCN(S(C)(=O)=O)CC5)c4)cc23)c1F [Trifluoroacetate salt of embodiment 18] | 0.0161 |  | 0.0297 |
| COc1cc(OC)c(F)c(Cc2n[nH]c3ncc(-c4cnn(CCO)c4)cc23)c1F [Trifluoroacetate salt of embodiment 1] | 1.29 |  | 0.0397 |
| COc1cc(OC)c(F)c(Cc2c[nH]c3ncc(-c4cnn(C5CCN(C(C)=O)CC5)c4)cc23)c1F [Trifluoroacetate salt of embodiment 17] | 0.0116 |  | 0.0075 |
| COc1cc(Cc2c[nH]c3ncc(-c4cnn(C5CCNCC5)c4)cc23)cc(OC)c1 [Trifluoroacetate salt of embodiment 11] |  | 0.0171 | 0.55 |
| CCN1CCC(n2cc(-c3cnc4[nH]cc(Cc5c(F)ccc(OC)c5F)c4c3)c(C#N)n2)CC1 [Embodiment 45] | 0.0091 |  | 0.351 |
| CC(c1c(Cl)ccc(F)c1Cl)c1c[nH]c2ncc(-c3cnn(CCO)c3)cc12 (stereo not drawn) [Comparative Compound 1b, reference compound] | 0.0111 |  | 5.09 |
| COc1cc(OC)c(F)c(Cc2c[nH]c3ncc(-c4cn(C5CCN(C)CC5)nc4C#N)cc23)c1F [Hydrochloride of embodiment 43] | 0.0571 |  | 0.0617 |
| COc1cc(OC)c(F)c(Cc2c[nH]c3ncc(-c4ccc(N5CCN(C)CC5)nc4)cc23)c1F [Trifluoroacetate salt of embodiment 62] | 0.132 |  | 0.0086 |
| CCN1CCC(n2cc(-c3cnc4[nH]cc(Cc5c(F)c(OC)cc(OC)c5F)c4c3)cn2)CC1 [Trifluoroacetate salt of embodiment 12] | 0.00317 |  | 0.036 |
| COc1cc(OC)c(F)c(Cc2n[nH]c3ncc(-c4cnn(C5CCNCC5)c4)cc23)c1F [Hydrochloride of embodiment 2] | 0.0078 |  | 0.137 |
| COc1cc(OC)c(F)c(Cc2c[nH]c3ncc(-c4cnn(C5CNC5)c4)cc23)c1F [Trifluoroacetate salt of embodiment 24] | 0.0765 |  | 0.252 |
| COc1ccc(Cl)c(Cc2c[nH]c3ncc(-c4cnn(C5CCNCC5)c4)cc23)c1Cl [Trifluoroacetate salt of embodiment 10] | 0.0087 |  | 1.71 |
| COc1cc(OC)c(F)c(Cc2c[nH]c3ncc(-c4cnn(C5CN(C(C)=O)C5)c4)cc23)c1F [Trifluoroacetate salt of embodiment 26] | 0.0138 |  | 0.0353 |
| COc1cc(OC)c(F)c(Cc2c[nH]c3ncc(-c4cn(C5CCNCC5)nc4C)cc23)c1F [Embodiment 32] | 0.0062 |  | 0.0135 |

| SMILES | IC50 (human c-Met) [µM] | IC50 (human FGFR1) [µM] | IC50 (human FGFR4) [µM] |
| --- | --- | --- | --- |
| COc1cc(OC)c(F)c(Cc2c[nH]c3ncc(-c4cn(C)nc4C#N)cc23)c1F [Trifluoroacetate salt of embodiment 44] | 0.191 |  | 0.0323 |
| CCN1CCC(n2cc(-c3cnc4[nH]c(C)c(Cc5c(F)c(OC)cc(OC)c5F)c4c3)cn2)CC1 [Hydrochloride of embodiment 74] | 0.0042 |  | 0.0565 |
| CCN1CCC(n2cc(-c3cnc4[nH]nc(Cc5c(F)ccc(OC)c5F)c4c3)cn2)CC1 [Hydrochloride of embodiment 4] | 0.177 |  | 0.799 |
| CC(c1c(Cl)ccc(F)c1Cl)c1c[nH]c2ncc(-c3cnn(CCO)c3)cc12 (single isomer, unassigned) [Comparative Compound 1a, reference compound] | 0.758 |  | > 10 |
| COc1cc(OC)c(F)c(Cc2c[nH]c3ncc(-c4cnn(C5CCOCC5)c4)cc23)c1F [Trifluoroacetate salt of embodiment 22] | 0.0238 |  | 0.0292 |
| COc1cc(OC)c(F)c(Cc2c[nH]c3ncc(-c4cnn(CCS(C)(=O)=O)c4)cc23)c1F [Trifluoroacetate salt of embodiment 76] |  |  | 0.00387 |
| COc1cc(OC)c(F)c(Cc2c[nH]c3ncc(-c4cncc(C5=CCNCC5)n4)cc23)c1F [Hydrochloride of embodiment 63] |  | 0.00941 |  |
| COc1cc(OC)c(F)c(Cc2c[nH]c3ncc(-c4ccnc(N5CCN(C)CC5)c4)cc23)c1F [Embodiment 78] | 0.141 |  | 0.0098 |
| COc1cc(OC)c(F)c(Cc2c[nH]c3ncc(-c4cnn(CCCNC(C)C)c4)cc23)c1F [Hydrochloride of embodiment 72] | 0.0708 |  | 0.0531 |
| CCN1CCC(n2ccc(-c3cnc4[nH]cc(Cc5c(F)c(OC)nc(OC)c5F)c4c3)n2)CC1 [Embodiment 75] | 0.00326 |  | 0.0106 |
| CCN1CCC(c2cncc(-c3cnc4[nH]cc(Cc5c(F)c(OC)cc(OC)c5F)c4c3)n2)CC1 [Hydrochloride of embodiment 65] | 0.135 |  | 0.0027 |
| CCN1CCC(n2cc(-c3cnc4[nH]cc(Cc5c(F)ccc(OC)c5F)c4c3)cn2)CC1 [Embodiment 38] | 0.0091 |  | 0.599 |
| CCN1CCC(n2cc(-c3cnc4[nH]cc(Cc5c(F)c(OC)cc(OC)c5F)c4c3)c(C)n2)CC1 [Hydrochloride of embodiment 37] | 0.033 |  | 0.0524 |
| COc1cc(OC)c(Cl)c(Cc2c[nH]c3ncc(-c4cnn(C5CCNCC5)c4)cc23)c1Cl [Trifluoroacetate salt of embodiment 49] | 0.0088 |  | 0.529 |
| COc1ccc(F)c(Cc2c[nH]c3ncc(-c4cn(C5CCNCC5)nc4C)cc23)c1F [Hydrochloride of embodiment 36] | 0.0273 |  | 0.684 |
| COc1cc(OC)c(F)c(Cc2c[nH]c3ncc(-c4cnn(C5CCNCC5)c4)nc23)c1F [Trifluoroacetate salt of embodiment 5] | 0.0472 |  | 0.0203 |
| COc1cc(OC)c(F)c(Cc2c[nH]c3ncc(-c4cnn(CCNC(C)C)c4)cc23)c1F [Hydrochloride of embodiment 68] | 0.0535 |  | 0.01 |
| CCN1CCC(n2cc(-c3cnc4[nH]nc(Cc5c(F)c(OC)cc(OC)c5F)c4c3)cn2)CC1 [Hydrochloride of embodiment 3] | 0.0761 |  | 0.148 |
| CNC(=O)c1cc(Cc2c[nH]c3ncc(-c4cnn(C5CCNCC5)c4)cc23)c(Cl)c(OC)c1 [Trifluoroacetate salt of embodiment 20] | 0.012 |  | 0.158 |
| COc1cc(OC)c(F)c(Cc2c[nH]c3ncc(-c4cnn(C5CN(CCO)C5)c4)cc23)c1F [Trifluoroacetate salt of embodiment 27] | 0.0067 |  | 0.0131 |
| COc1nc(OC)c(F)c(Cc2c[nH]c3ncc(-c4cnn(CCS(C)(=O)=O)c4)cc23)c1F [Trifluoroacetate salt of embodiment 77] |  |  | 0.00341 |

Reference: US12312347B2, “Azaindole derivative and use thereof as FGFR and C-Met inhibitor” (Wuxi Life Fountain Biotech Co., Ltd, priority 2018, dated 2025)
